# Legend:
# [1] = target: T1, Alpha-galactosidase (Escherichia coli K-12) (UniProt P06720); experiment: Percent inhibition against Escherichia coli galactosidase at 0.24 mM; n>=3
# T1 sequence (whole entry): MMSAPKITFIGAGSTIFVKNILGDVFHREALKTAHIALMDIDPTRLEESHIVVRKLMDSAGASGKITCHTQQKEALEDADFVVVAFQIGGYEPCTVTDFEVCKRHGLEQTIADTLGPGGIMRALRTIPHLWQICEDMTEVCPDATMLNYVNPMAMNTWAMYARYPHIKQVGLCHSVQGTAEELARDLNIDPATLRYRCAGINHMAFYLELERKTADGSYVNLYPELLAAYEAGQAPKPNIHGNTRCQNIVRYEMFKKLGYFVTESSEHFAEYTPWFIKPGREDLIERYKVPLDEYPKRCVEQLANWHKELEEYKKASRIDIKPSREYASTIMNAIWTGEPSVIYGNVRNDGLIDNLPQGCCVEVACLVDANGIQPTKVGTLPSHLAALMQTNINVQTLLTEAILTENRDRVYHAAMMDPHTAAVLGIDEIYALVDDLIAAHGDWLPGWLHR
# [2] = target: T1, Alpha-galactosidase (Escherichia coli K-12); experiment: Percent inhibition against Escherichia coli galactosidase at 0.24 mM; n>=2
inhibition [1],inhibition [2],Structure (SMILES)
30%,–,OC[C@@H]1O[C@@H](n2cc(-c3ccccc3)nn2)[C@@H](O)[C@@H](O)[C@H]1O
< 20%,–,OC[C@H]1NC[C@H](O)[C@@H](O)[C@@H]1O
–,< 20%,OC[C@@H]1O[C@@H](n2cc(-c3ccccc3)nn2)[C@@H](O)[C@@H](O)[C@@H]1O

# — ChEMBL document CHEMBL1142760, “Glycosidase inhibition by 1-glycosyl-4-phenyl triazoles” (Bioorg Med Chem Lett, 2005)
